Test results from ChEMBL document CHEMBL5291721, “A preclinical secondary pharmacology resource illuminates target-adverse drug reaction associations of marketed drugs” (Nat Commun, 2023).

What was measured:
[1] = molecular target: T1, Adenosine receptor A3 (Homo sapiens, UniProt P0DMS8)
T1 sequence (P0DMS8 whole entry): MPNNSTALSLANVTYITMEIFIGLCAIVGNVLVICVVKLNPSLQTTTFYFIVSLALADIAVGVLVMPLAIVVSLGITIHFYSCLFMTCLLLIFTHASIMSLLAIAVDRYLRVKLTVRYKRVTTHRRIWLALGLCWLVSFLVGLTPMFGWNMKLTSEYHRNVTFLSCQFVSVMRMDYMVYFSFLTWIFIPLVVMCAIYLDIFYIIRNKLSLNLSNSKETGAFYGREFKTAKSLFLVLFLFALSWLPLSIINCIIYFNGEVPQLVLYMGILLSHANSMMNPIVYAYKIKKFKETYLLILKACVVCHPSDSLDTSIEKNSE

[2] = molecular target: T2, Alpha-1A adrenergic receptor (Homo sapiens, UniProt P35348); format: functional, cell-based
T2 sequence (P35348 whole entry): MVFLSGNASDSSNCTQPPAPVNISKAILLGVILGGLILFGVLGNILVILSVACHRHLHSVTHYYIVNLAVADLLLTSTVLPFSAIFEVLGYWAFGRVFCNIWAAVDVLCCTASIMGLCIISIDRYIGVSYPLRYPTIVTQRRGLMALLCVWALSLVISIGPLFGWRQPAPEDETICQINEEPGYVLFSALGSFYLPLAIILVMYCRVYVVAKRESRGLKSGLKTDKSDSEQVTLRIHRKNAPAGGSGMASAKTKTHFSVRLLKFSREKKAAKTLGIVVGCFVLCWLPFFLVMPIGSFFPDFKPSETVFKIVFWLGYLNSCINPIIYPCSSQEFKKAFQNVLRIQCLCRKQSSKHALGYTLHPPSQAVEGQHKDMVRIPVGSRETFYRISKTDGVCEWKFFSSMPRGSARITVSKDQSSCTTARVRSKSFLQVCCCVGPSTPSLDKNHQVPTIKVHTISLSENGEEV

[3] = molecular target: T3, Estrogen receptor (Homo sapiens, UniProt P03372)
T3 sequence (P03372 whole entry): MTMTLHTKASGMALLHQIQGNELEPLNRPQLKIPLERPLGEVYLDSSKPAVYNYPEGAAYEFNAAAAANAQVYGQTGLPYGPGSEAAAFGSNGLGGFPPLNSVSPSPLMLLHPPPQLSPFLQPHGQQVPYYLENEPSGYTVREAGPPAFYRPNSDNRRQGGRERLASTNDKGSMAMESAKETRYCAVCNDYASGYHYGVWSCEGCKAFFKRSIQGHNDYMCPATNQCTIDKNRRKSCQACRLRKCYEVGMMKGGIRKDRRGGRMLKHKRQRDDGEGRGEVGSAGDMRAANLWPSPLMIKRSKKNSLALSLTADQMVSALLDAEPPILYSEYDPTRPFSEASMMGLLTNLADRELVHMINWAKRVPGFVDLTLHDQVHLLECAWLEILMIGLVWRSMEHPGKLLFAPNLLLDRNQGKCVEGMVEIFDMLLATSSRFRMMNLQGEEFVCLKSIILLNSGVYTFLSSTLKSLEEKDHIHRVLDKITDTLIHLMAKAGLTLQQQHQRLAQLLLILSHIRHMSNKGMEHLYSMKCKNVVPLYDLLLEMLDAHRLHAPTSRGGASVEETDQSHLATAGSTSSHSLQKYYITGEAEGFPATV

[4] = molecular target: Histamine H3 receptor (Homo sapiens, UniProt Q9Y5N1)
[5] = molecular target: Vascular endothelial growth factor receptor 2 (Homo sapiens, UniProt P35968); format: functional
[6] = molecular target: Mu-type opioid receptor (Homo sapiens, UniProt P35372)
[7] = molecular target: cGMP-inhibited 3',5'-cyclic phosphodiesterase 3A (Homo sapiens, UniProt Q14432); format: functional
[8] = molecular target: T4, Progesterone receptor (Homo sapiens, UniProt P06401)
T4 sequence (P06401 whole entry): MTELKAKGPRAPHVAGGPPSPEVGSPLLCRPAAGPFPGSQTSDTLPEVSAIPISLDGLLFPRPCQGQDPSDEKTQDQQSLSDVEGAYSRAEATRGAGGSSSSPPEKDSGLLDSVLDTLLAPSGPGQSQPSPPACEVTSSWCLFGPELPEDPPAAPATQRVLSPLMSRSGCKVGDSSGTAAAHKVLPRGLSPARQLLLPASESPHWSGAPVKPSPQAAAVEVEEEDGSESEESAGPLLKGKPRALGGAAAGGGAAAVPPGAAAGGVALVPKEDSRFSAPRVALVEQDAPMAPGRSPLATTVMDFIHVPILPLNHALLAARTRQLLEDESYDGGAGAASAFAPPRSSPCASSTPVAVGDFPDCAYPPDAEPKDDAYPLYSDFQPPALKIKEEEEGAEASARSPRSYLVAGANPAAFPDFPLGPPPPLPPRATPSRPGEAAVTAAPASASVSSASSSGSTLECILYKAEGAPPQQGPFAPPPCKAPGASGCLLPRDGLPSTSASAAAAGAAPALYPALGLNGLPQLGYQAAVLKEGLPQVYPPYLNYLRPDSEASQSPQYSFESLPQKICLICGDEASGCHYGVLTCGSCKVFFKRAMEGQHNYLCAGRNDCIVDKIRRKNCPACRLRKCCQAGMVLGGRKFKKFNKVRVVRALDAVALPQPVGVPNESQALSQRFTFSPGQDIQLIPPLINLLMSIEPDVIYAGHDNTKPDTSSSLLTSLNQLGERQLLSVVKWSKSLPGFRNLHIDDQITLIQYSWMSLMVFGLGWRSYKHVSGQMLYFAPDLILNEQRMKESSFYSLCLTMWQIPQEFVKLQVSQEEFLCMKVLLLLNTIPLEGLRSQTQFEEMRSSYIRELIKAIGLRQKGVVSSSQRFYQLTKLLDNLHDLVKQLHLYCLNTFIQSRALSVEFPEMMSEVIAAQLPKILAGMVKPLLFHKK
Note: assay procedure not described here.

cGMP-inhibited 3',5'-cyclic phosphodiesterase 3A, sequence (Q14432 whole entry): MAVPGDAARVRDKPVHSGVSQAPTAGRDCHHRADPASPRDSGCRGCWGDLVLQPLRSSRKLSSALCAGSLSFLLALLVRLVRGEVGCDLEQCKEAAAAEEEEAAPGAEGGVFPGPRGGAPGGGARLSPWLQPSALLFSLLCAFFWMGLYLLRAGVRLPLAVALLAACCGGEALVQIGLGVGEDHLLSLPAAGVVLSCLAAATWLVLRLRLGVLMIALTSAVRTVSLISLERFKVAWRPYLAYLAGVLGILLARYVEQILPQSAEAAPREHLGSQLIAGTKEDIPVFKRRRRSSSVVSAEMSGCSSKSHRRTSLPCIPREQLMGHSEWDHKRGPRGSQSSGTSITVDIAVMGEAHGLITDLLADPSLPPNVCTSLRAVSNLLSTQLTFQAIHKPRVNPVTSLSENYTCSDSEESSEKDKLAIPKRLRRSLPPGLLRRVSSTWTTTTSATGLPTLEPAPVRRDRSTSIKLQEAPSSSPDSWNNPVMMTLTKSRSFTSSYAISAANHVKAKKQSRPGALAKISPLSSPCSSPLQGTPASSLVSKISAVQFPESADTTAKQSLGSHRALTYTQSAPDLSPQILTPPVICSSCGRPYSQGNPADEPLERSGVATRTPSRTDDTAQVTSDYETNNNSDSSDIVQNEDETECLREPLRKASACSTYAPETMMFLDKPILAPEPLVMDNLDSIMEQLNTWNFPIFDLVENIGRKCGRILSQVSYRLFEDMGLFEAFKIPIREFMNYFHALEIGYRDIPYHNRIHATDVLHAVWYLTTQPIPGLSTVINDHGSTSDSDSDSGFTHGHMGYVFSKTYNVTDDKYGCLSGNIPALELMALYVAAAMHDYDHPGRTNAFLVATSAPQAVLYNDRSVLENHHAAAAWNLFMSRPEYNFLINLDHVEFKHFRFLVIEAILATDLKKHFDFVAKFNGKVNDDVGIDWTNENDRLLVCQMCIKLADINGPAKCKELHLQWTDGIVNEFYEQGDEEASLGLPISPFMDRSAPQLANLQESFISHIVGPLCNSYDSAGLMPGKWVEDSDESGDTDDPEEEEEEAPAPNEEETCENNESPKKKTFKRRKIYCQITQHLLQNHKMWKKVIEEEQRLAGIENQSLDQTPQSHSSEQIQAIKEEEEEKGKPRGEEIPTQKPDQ
Histamine H3 receptor, sequence (Q9Y5N1 whole entry): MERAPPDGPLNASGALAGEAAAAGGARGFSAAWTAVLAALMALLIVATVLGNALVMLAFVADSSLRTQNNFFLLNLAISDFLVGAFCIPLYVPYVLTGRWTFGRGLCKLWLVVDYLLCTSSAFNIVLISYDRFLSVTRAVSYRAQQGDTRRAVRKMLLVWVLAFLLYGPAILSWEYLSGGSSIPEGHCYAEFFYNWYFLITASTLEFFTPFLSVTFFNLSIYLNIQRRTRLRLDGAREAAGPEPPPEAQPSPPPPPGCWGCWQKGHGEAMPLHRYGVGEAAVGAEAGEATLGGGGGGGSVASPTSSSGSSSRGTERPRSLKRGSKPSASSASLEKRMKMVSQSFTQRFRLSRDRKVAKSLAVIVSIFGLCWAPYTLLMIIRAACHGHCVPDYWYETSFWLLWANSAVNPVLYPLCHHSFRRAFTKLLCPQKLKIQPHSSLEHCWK
Vascular endothelial growth factor receptor 2, sequence (P35968 whole entry): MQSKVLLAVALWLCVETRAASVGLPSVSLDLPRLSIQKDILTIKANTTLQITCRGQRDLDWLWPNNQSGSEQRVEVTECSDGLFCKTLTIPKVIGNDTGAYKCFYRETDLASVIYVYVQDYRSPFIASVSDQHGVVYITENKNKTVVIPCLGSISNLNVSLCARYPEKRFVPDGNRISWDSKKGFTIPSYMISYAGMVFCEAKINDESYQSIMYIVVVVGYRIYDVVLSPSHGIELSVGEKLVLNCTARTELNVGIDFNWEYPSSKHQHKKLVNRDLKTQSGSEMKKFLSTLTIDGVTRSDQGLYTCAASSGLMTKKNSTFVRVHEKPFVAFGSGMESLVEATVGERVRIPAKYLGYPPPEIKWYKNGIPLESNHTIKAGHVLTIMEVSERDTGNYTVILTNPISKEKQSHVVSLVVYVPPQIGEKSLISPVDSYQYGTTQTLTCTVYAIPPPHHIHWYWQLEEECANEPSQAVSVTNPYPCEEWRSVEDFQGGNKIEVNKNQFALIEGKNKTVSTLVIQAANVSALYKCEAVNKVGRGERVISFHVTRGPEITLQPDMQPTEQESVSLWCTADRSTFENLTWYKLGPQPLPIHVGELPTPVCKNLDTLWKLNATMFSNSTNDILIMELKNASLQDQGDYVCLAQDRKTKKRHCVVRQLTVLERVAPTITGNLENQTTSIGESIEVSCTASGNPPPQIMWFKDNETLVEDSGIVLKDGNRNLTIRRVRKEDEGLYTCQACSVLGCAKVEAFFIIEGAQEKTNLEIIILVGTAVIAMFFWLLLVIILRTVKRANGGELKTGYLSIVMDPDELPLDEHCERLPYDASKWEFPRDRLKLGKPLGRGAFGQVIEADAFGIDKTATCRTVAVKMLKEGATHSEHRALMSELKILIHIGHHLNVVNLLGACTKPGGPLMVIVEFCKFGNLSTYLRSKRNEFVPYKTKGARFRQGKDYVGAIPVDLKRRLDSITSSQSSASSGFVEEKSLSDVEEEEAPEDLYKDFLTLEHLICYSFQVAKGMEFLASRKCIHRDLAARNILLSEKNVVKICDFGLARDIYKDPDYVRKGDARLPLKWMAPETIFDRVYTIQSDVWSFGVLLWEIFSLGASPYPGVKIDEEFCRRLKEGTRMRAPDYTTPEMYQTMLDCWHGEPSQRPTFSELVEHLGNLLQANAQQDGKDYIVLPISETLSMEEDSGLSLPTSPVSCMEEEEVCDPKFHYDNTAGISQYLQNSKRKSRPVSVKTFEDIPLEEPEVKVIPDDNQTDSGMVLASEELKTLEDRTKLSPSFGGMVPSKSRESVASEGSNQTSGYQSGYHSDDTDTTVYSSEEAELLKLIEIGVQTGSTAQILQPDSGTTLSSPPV
Mu-type opioid receptor, sequence (P35372 whole entry): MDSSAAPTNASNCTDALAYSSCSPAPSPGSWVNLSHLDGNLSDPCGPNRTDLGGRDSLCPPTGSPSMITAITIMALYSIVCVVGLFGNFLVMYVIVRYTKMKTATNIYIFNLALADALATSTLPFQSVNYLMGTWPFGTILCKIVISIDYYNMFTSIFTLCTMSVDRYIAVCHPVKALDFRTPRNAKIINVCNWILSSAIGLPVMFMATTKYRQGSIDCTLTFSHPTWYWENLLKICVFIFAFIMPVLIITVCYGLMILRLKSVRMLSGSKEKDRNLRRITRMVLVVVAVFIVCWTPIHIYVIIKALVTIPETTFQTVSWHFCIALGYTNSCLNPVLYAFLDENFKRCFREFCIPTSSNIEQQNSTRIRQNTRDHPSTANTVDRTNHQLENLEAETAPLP

AC50 [1]: > 30 µM
AC50 [2]: > 1 µM
AC50 [3]: > 30 µM
AC50 [4]: 0.693 µM
AC50 [5]: > 30 µM
AC50 [6]: 5.86 µM
AC50 [7]: > 30 µM
AC50 [8]: > 10 µM
Structure (SMILES): CCN(CC)CCCC(C)Nc1c2ccc(Cl)cc2nc2ccc(OC)cc12 (stereo not drawn) [QUINACRINE]
